The source of these data is patent publication US20240018135A1, “COMPOUND HAVING INHIBITORY ACTIVITY AGAINST O-GLUSACASE AND USE THEREOF” (MEDIFRON DBT INC., priority 2020, published 2024).

In series [1] the target is Human OGA (recombinant hOGA protein) (Homo sapiens (Human), UniProt O60502). The series is described as follows: Human OGA enzyme activity assay (fluorescence, 4-Methylumbelliferyl N-acetyl-β-D-glucosaminide substrate). Format: biochemical. Particulars: for IC50: Table 1; for % of inhibition: Table 1, test concentration not given.
Human OGA (recombinant hOGA protein), sequence (O60502 whole entry): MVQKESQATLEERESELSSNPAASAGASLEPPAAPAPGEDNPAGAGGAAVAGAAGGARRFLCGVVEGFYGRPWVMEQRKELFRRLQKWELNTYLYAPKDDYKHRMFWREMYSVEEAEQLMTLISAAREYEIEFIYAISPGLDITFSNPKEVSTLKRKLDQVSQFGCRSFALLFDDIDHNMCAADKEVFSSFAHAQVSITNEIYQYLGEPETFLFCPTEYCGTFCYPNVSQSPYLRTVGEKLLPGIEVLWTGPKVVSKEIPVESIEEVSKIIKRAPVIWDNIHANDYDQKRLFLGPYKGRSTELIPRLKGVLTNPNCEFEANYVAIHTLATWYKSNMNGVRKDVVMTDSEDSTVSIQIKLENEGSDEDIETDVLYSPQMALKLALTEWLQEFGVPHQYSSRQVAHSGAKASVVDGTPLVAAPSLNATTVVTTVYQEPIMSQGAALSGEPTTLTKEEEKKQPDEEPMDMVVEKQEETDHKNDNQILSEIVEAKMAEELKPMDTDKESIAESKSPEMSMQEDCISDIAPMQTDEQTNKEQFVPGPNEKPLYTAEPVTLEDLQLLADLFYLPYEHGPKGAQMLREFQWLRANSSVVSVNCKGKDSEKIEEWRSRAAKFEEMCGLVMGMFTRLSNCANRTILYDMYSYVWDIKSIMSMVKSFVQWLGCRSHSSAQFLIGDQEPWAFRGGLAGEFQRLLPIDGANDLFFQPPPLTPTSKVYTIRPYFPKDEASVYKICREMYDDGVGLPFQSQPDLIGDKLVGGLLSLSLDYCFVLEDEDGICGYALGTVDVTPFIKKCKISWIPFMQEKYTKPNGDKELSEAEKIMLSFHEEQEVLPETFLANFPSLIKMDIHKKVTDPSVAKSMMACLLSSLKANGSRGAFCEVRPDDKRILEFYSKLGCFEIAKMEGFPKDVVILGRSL

As a reminder, the IC50 is the point on the concentration scale where inhibition reaches its midpoint. What is called melting point is the temperature of the solid-liquid transition. For `CC(=O)Nc1ncc(CN2CCC(C(=O)Nc3ccccc3)CC2)s1` [Compound B-1, 1-((2-acetamidothiazol-5-yl)methyl)N-phenylpiperidine-4-carboxamide], the melting point lay within 172 to 174 °C. For the same compound, in series [1], the IC50 turned out to be 870 nM and the “% of inhibition” value turned out to be 87.0%.
Compound `CC(=O)Nc1ncc(CN2CCN(CC(=O)Nc3cccc(C)c3)CC2)s1` [Compound A-5, 2-(4-((2-acetamidothiazol-5-yl)methyl)piperazin-1-yl)-N-(m-tolyl)acetamide] gave a melting point of 202 to 204 °C. Besides, the “% of inhibition” value in series [1] was found to be 62.4%.
Compound `CC(=O)Nc1ncc(CN2CCN(CC(=O)Nc3ccc(C(C)C)cc3)CC2)s1` [Compound A-6, 2-(4-((2-acetamidothiazol-5-yl)methyl)piperazin-1-yl)-N-(4-isopropylphenyl) acetamide] yielded a melting point of 173 to 176 °C. Also, the “% of inhibition” value in series [1] is recorded as 79.2%.
For the compound `CC(=O)Nc1ncc(CN2CCN(CC(=O)Nc3ccc4[nH]ccc4c3)CC2)s1` [Compound A-25, 2-(4-((2-acetamidothiazol-5-yl)methyl)piperazin-1-yl)-N-(1H-indol-5-yl)acetamide], the melting point was in the range of 216 to 219 °C. Also, in series [1], the “% of inhibition” value is 59.2%.
The matching figures for `CCOc1ccc2nc(NC(=O)CN3CCN(Cc4cnc(NC(C)=O)s4)CC3)sc2c1` [Compound A-29, 2-(4-((2-acetamidothiazol-5 yl)methyl)piperazin-1 yl)-N-(6-ethoxybenzo[d]thiazol-2-yl)acetamide]: 244 to 246 °C and 44.6%.
Compound `CC(=O)Nc1ncc(CN2CCN(CC(=O)NCc3ccc(-c4ccccc4)cc3)CC2C)s1` (centres unmarked) [Compound A-41, N-([1,1′-biphenyl]-4-ylmethyl)-2-(4-((2-acetamidothiazol-5-yl)methyl)-3-methylpiperazin-1-yl)acetamide] gave a melting point of 215 to 216 °C. In addition, in series [1], the IC50 was determined as 30 nM and the “% of inhibition” value worked out at 99.6%.
Turning to `CC(=O)Nc1ncc(CN2CCC(C(=O)Nc3ccc4ncccc4c3)CC2)s1` [Compound B-6, 1-((2-acetamidothiazol-5 yl)methyl)-N-(quinolin-6-yl)piperidine-4-carboxamide], the melting point is 234 to 236 °C. Besides, in series [1], the 50% inhibitory concentration (IC50) was 320 nM and the “% of inhibition” value was determined as 91.4%.
The matching figures for `COc1ccc(NC(=O)CN2CCN(Cc3cnc(NC(C)=O)s3)CC2)cc1` [Compound A-7, 2-(4-((2-acetamidothiazol-5-yl)methyl)piperazin-1-yl)-N-(4-methoxyphenyl)acetamide]: 217 to 220 °C, 840 nM and 84.2%.
In turn, `CC(=O)Nc1ncc(CN2CCN(CC(=O)Nc3ccc(F)cc3)CC2)s1` [Compound A-11, 2-(4-((2-acetamidothiazol-5-yl)methyl)piperazin-1-yl)-N-(4-fluorophenyl)acetamide] gave a melting point of 212 to 215 °C. For the same compound, in series [1], the half-maximal inhibitory concentration (IC50) worked out at 2610 nM and the “% of inhibition” value is 85.7%.
On to `COc1ccc(CNC(=O)C2CCN(Cc3cnc(NC(C)=O)s3)CC2)cc1` [Compound B-8, 1-((2-acetamidothiazol-5-yl)methyl)-N-(4-methoxybenzyl)piperidine-4-carboxamide], for which the melting point was 215 to 217 °C. In addition, in series [1], the half-inhibitory concentration (IC50) is 860 nM and the “% of inhibition” value is given as 93.9%.
With `CC(=O)Nc1ncc(CN2CCN(CC(=O)Nc3cccc4ccccc34)CC2)s1` [Compound A-24, 2-(4-((2-acetamidothiazol-5-yl)methyl)piperazin-1-yl)-N-(naphthalen-1-yl)acetamide], the melting point fell in the range of 257 to 258 °C. Further, the “% of inhibition” value in series [1] was 71.3%.
In the case of `COc1ccc(CCNC(=O)CN2CCN(Cc3cnc(NC(C)=O)s3)CC2)cc1` [Compound A-8, 2-(4-((2-acetamidothiazol-5-yl)methyl)piperazin-1-yl)-N-(4-methoxyphenethyl) acetamide], the melting point lay within 177 to 179 °C. For the same compound, in series [1], the IC50 came out at 630 nM and the “% of inhibition” value amounted to 85.4%.
Compound `CC(=O)Nc1ncc(CN2CCN(CC(=O)Nc3ccc(N4CCN(C(C)=O)CC4)cc3)CC2C)s1` (centres unmarked) [Compound A-37, 2-(4-((2-acetamidothiazol-5-yl)methyl)-3-methylpiperazin-1-yl)-N-(4-(4-acetylpiperazin-1-yl)phenyl)acetamide] had a melting point of 232 °C. In series [1], the IC50 was 70 nM and the “% of inhibition” value is on record as 98.4%.
In the same order, the values of `CC(=O)Nc1ncc(CN2CCC(=CC(=O)Nc3ccccc3)CC2)s1` [Compound C-1, 2-(1-((2-acetamidothiazol-5-yl)methyl)piperidin-4-ylidene)-N-phenylacetamide] are 184 to 185 °C, 310 nM and 96.2%.
The matching figures for `CC(=O)Nc1ncc(CN2CCC(C(=O)Nc3ccc(C(C)C)cc3)CC2)s1` [Compound B-3, 1-((2-acetamidothiazol-5-yl)methyl)-N-(4-isopropylphenyl)piperidine-4-carboxamide]: 257 to 258 °C, 680 nM and 91.8%.
The compound `CC(=O)Nc1ncc(CN2CCN(CC(=O)Nc3cc(C)ccn3)CC2)s1` [Compound A-18, 2-(4-((2-acetamidothiazol-5-yl)methyl)piperazin-1-yl)-N-(4-methylpyridin-2-yl) acetamide] registered a melting point of 210 to 211 °C. For the same compound, the “% of inhibition” value in series [1] was 48.8%.
The matching figures for `CC(=O)Nc1ncc(CN2CCN(CC(=O)Nc3ccccc3C)CC2)s1` [Compound A-4, 2-(4-((2-acetamidothiazol-5-yl)methyl)piperazin-1-yl)-N-(o-tolyl)acetamide]: 194 to 196 °C and 47.6%.
The matching figures for `CC(=O)Nc1ncc(CN2CCC(=CC(=O)NC3CCCCC3)CC2)s1` [Compound C-8, 2-(1-((2-acetamidothiazol-5-yl)methyl)piperidin-4-ylidene)-N-cyclohexylacetamide]: 222 to 224 °C and 97.7%.
In turn, `COc1ccc(NC(=O)CN2CCN(Cc3cnc(NC(C)=O)s3)CC2)cc1OC` [Compound A-10, 2-(4-((2-acetamidothiazol-5-yl)methyl)piperazin-1-yl)-N-(3,4-dimethoxyphenyl)acetamide] registered a melting point of 182 to 184 °C. Moreover, the “% of inhibition” value in series [1] is listed as 62.4%.
In the same order, the values of `CC(=O)Nc1ncc(CN2CCN(CC(=O)Nc3nccs3)CC2)s1` [Compound A-21, 2-(4-((2-acetamidothiazol-5-yl)methyl)piperazin-1-yl)-N-(thiazol-2-yl)acetamide] are 237 to 240 °C and 59.1%.
`CC(=O)Nc1ncc(CN2CCN(CC(=O)Nc3cccc(C)n3)CC2)s1` [Compound A-16] gave a melting point of 224 to 228 °C. For the same compound, in series [1], the “% of inhibition” value is on record as 38.6%.
Take `CC(=O)Nc1ncc(CN2CCN(CC(=O)Nc3ccc(F)cc3)CC2C)s1` (centres unmarked) [Compound A-33, 2-(4-((2-acetamidothiazol-5-yl)methyl)-3-methylpiperazin-1-yl)-N-(4-fluorophenyl)acetamide]: the melting point was in the range of 102 to 105 °C. Moreover, in series [1], the IC50 was found to be 230 nM and the “% of inhibition” value is reported as 97.9%.
`CC(=O)Nc1ncc(CN2CCC(=CC(=O)Nc3ccc(Cl)cc3)CC2)s1` [Compound C-3, 2-(1-((2-acetamidothiazol-5-yl)methyl)piperidin-4-ylidene)-N-(4-chlorophenyl)acetamide] showed a melting point of 225 to 228 °C. For the same compound, in series [1], the IC50 was 140 nM and the “% of inhibition” value was 97.3%.
Regarding `CC(=O)Nc1ncc(CN2CCCC(C(=O)Nc3ccccc3)C2)s1` (centres unmarked) [Compound B-16, 1-((2-acetamidothiazol-5-yl)methyl)-N-phenylpiperidine-3-carboxamide], the melting point fell in the range of 257 to 259 °C. For the same compound, in series [1], the concentration for half-maximal inhibition (IC50) turned out to be 230 nM and the “% of inhibition” value was found to be 95.5%.
For `CC(=O)Nc1ncc(CN2CCN(CC(=O)N(C)c3ccccc3)CC2)s1` [Compound A-31, 2-(4-((2-acetamidothiazol-5-yl)methyl)piperazin-1-yl)-N-methyl-N-phenylacetamide], the melting point was 208 to 210 °C. For the same compound, the “% of inhibition” value in series [1] amounted to 50.4%.
`CC(=O)Nc1ccc(NC(=O)CN2CCN(Cc3cnc(NC(C)=O)s3)CC2)cc1` [Compound A-14, N-(4-acetamidophenyl)-2-(4-((2-acetamidothiazol-5-yl)methyl)piperazin-1-yl)acetamide] returned a melting point of 234 to 237 °C. In series [1], the 50% inhibitory concentration (IC50) was found to be 1250 nM and the “% of inhibition” value worked out at 80.0%.
For `CC(=O)Nc1ncc(CN2CCN(CC(=O)NC3CCCCC3)CC2C)s1` (centres unmarked) [Compound A-35, 2-(4-((2-acetamidothiazol-5-yl)methyl)-3-methylpiperazin-1-yl)-N-cyclohexylacetamide], the melting point was in the range of 184 to 187 °C. Besides, in series [1], the IC50 was 100 nM and the “% of inhibition” value was 98.4%.
As for `CC(=O)Nc1ncc(CN2CCN(CC(=O)Nc3ccccc3)CC2C)s1` (centres unmarked) [Compound A-32, 2-(4-((2-acetamidothiazol-5 yl)methyl)-3-methylpiperazin-1-yl)-N-phenylacetamide], the melting point lay within 174 to 176 °C. For the same compound, in series [1], the IC50 is 240 nM and the “% of inhibition” value is 97.0%.
On to `CC(=O)Nc1ncc(CN2CCN(CC(=O)Nc3ccc4nccnc4c3)CC2)s1` [Compound A-23, 2-(4-((2-acetamidothiazol-5-yl)methyl)piperazin-1 yl)-N-(quinoxalin-6-yl)acetamide], for which the melting point fell in the range of 234 to 235 °C. Besides, the “% of inhibition” value in series [1] was found to be 70.1%.
In the case of `CC(=O)Nc1ncc(CN2CCC(=CC(=O)Nc3ccc(F)cc3)CC2)s1` [Compound C-2, 2-(1-((2-acetamidothiazol-5-yl)methyl)piperidin-4-ylidene)-N-(4-fluorophenyl)acetamide], the melting point is 189 to 191 °C. In addition, in series [1], the IC50 stood at 170 nM and the “% of inhibition” value stood at 97.1%.
